# Test results published in the supplement of paper PMC11061612.
# Tests used:
# Test in all cases: combination Emax (second highest fraction inhibited in the dose matrix, 72 h); higher = more inhibition; extreme values may be limits of the assay
# [1] = tested on: ATN-1 (T-Lymphoblastic Leukemia)
# Procedure, shortened: (§1)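 Cell lines in DMEM/F12 or RPMI with 10% FBS were plated in 1536-well plates, held 24 hours at 37°C, 5% CO2, then given two-drug dose matrices for 72 hours (DMSO typically 0.2%). Viability was read by CellTiter-Glo 2.0 luminescence and scaled as inhibition from 0 (vehicle wells) to 1 (blank wells). Combination Emax is the second-highest inhibition in the matrix; Bliss excess is observed combination effect minus expected EA + EB − EA·EB, EA and EB being single-agent effects.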
# [2] = tested on: BC-1 (B-Cell Non-Hodgkin's Lymphoma)
# Procedure, shortened: as §1
# [3] = tested on: BT-474 (Breast Carcinoma)
# Procedure, shortened: as §1
# [4] = tested on: C2BBe1 (Colorectal Carcinoma)
# Procedure, shortened: as §1
# [5] = tested on: COR-L105 (Lung Adenocarcinoma)
# Procedure, shortened: as §1
# [6] = tested on: GCIY (Gastric Carcinoma)
# Procedure, shortened: as §1
# [7] = tested on: GRANTA-519 (B-Cell Non-Hodgkin's Lymphoma)
# Procedure, shortened: as §1
# [8] = tested on: HT-1197 (Bladder Carcinoma)
# Procedure, shortened: as §1
# [9] = tested on: HT-3 (Cervical Carcinoma)
# Procedure, shortened: as §1
# [10] = tested on: MDA-MB-175-VII (Breast Carcinoma)
# Procedure, shortened: as §1
# [11] = tested on: MRK-nu-1 (Breast Carcinoma)
# Procedure, shortened: as §1
# [12] = tested on: NCI-H1048 (Small Cell Lung Carcinoma)
# Procedure, shortened: as §1
# [13] = tested on: NCI-H1435 (Non-Small Cell Lung Carcinoma)
# Procedure, shortened: as §1
# [14] = tested on: NCI-H1648 (Lung Adenocarcinoma)
# Procedure, shortened: as §1
# [15] = tested on: NCI-H1975 (Lung Adenocarcinoma)
# Procedure, shortened: as §1
# [16] = tested on: NCI-H2170 (Squamous Cell Lung Carcinoma)
# Procedure, shortened: as §1
# [17] = tested on: OCI-M1 (Acute Myeloid Leukemia)
# Procedure, shortened: as §1
# [18] = tested on: SBC-3 (Small Cell Lung Carcinoma)
# Procedure, shortened: as §1
# [19] = tested on: SBC-5 (Small Cell Lung Carcinoma)
# Procedure, shortened: as §1
# [20] = tested on: SW1463 (Colorectal Carcinoma)
# Procedure, shortened: as §1
Compound,combination Emax [1],combination Emax [2],combination Emax [3],combination Emax [4],combination Emax [5],combination Emax [6],combination Emax [7],combination Emax [8],combination Emax [9],combination Emax [10],combination Emax [11],combination Emax [12],combination Emax [13],combination Emax [14],combination Emax [15],combination Emax [16],combination Emax [17],combination Emax [18],combination Emax [19],combination Emax [20]
"COc1nnc2ccc(N3CCC(c4ccc(OCCN5CCN(C)C(=O)[C@H]5C)cc4)CC3)nn12 [AZD5153] + Cc1c2c(nn1C)CSCc1cc(n(C)n1)CSc1cc(c3ccccc3c1)OCCCc1c(C(=O)O)n(C)c3c-2c(Cl)ccc13 [AZD5991] (first compound max 1 µM, 7x7, partner max 1 µM)",0.999,1,0.912,0.452,0.568,0.538,0.314,0.966,0.911,0.553,1,0.627,0.296,0.818,0.724,0.636,1,0.753,0.988,0.581
"COc1nnc2ccc(N3CCC(c4ccc(OCCN5CCN(C)C(=O)[C@H]5C)cc4)CC3)nn12 [AZD5153] + CCN(CCO)CCCOc1ccc2c(Nc3cc(CC(=O)Nc4cccc(F)c4)[nH]n3)ncnc2c1 [AZD2811] (first compound max 1 µM, 7x7, partner max 1 µM)",0.734,0.943,0.368,0.558,0.426,0.63,0.56,0.742,0.332,0.509,0.561,0.514,0.339,0.669,0.781,0.717,1,0.781,0.718,0.563
"CN(C)CCCOc1ccc(-c2ccc3ncc4c(c3c2)n(C2CCOCC2)c(=O)n4C)cn1 [AZD0156] + O=C(c1cc(Cc2n[nH]c(=O)c3ccccc23)ccc1F)N1CCN(C(=O)C2CC2)CC1 [Olaparib] (first compound max 3 µM, partner max 3 µM)",0.393,0.566,0.27,0.285,0.358,0.418,0.151,0.121,0.321,0.198,0.542,0.352,0.161,0.396,0.39,0.437,0.534,0.465,0.194,0.169
"COc1cccc(OCCCN)c1-c1cc(Nc2cnc(C#N)cn2)n[nH]1 [Prexasertib] + CN(C)CCCOc1ccc(-c2ccc3ncc4c(c3c2)n(C2CCOCC2)c(=O)n4C)cn1 [AZD0156] (first compound max 1 µM, 7x7, partner max 1 µM)",1,0.984,0.237,0.582,0.435,0.853,0.873,0.571,0.453,0.327,0.81,0.685,0.365,0.768,0.291,0.868,0.951,0.8,0.886,0.716
"Cn1cnc2c(F)c(Nc3ccc(Br)cc3Cl)c(C(=O)NOCCO)cc21 [Selumetinib] + CCN(CCO)CCCOc1ccc2c(Nc3cc(CC(=O)Nc4cccc(F)c4)[nH]n3)ncnc2c1 [AZD2811] (first compound max 10 µM, 7x7, partner max 1 µM)",0.734,0.655,0.0839,0.484,0.387,0.371,0.439,0.223,0.367,0.485,0.548,0.611,0.106,0.593,0.423,0.64,0.841,0.482,0.366,0.678
"C=CCn1c(=O)c2cnc(Nc3ccc(N4CCN(C)CC4)cc3)nc2n1-c1cccc(C(C)(C)O)n1 [AZD1775] + O=C(c1cc(Cc2n[nH]c(=O)c3ccccc23)ccc1F)N1CCN(C(=O)C2CC2)CC1 [Olaparib] (first compound max 1 µM, partner max 10 µM)",1,0.998,0.237,0.335,0.436,0.568,0.804,0.468,0.339,0.23,0.336,0.874,0.296,0.702,0.262,0.58,0.869,0.621,0.507,0.521
"Cc1c2c(nn1C)CSCc1cc(n(C)n1)CSc1cc(c3ccccc3c1)OCCCc1c(C(=O)O)n(C)c3c-2c(Cl)ccc13 [AZD5991] + C[C@@H]1COCCN1C2=NC(=NC(=C2)C3(CC3)[S@](=N)(=O)C)C4=C5C=CNC5=NC=C4 [AZD6738] (first compound max 1 µM, 7x7, partner max 10 µM)",1,1,0.334,0.452,0.511,0.808,0.906,0.466,0.907,0.259,1,1,0.217,0.865,0.664,0.683,0.973,0.746,0.9,0.506
"Cc1c2c(nn1C)CSCc1cc(n(C)n1)CSc1cc(c3ccccc3c1)OCCCc1c(C(=O)O)n(C)c3c-2c(Cl)ccc13 [AZD5991] + C=CCn1c(=O)c2cnc(Nc3ccc(N4CCN(C)CC4)cc3)nc2n1-c1cccc(C(C)(C)O)n1 [AZD1775] (first compound max 1 µM, partner max 1 µM)",1,1,0.469,0.341,0.454,0.545,0.863,0.593,0.631,0.216,1,1,0.276,0.796,0.677,0.749,0.921,0.602,0.694,0.471
